Test results: patent publication US5192525A (Board of Regents, The University of Texas System, priority 1991, dated 1993)

Experiments:
[1] = literature; cited from earlier work
[2] = literature; cited from earlier work; remark: listed apart in the source
[3] = in vivo; cited from earlier work
[4] = tested on: estrogen receptor-positive breast cancer; settings: McCague; cited from earlier work
estrogen receptor [5] = biological target: T1, estrogen receptor (Sus scrofa, UniProt Q29040); test: Estrogen receptor binding in pig uterus cytosol, displacement of [3H]estradiol
T1 construct: uteri (90 gm) were obtained from immature domestic swine (15 kg); from tissue; host or cells: uterus cytosol (100,000 g supernatant, charcoal-treated) of immature domestic swine
T1 sequence (Q29040 1-595): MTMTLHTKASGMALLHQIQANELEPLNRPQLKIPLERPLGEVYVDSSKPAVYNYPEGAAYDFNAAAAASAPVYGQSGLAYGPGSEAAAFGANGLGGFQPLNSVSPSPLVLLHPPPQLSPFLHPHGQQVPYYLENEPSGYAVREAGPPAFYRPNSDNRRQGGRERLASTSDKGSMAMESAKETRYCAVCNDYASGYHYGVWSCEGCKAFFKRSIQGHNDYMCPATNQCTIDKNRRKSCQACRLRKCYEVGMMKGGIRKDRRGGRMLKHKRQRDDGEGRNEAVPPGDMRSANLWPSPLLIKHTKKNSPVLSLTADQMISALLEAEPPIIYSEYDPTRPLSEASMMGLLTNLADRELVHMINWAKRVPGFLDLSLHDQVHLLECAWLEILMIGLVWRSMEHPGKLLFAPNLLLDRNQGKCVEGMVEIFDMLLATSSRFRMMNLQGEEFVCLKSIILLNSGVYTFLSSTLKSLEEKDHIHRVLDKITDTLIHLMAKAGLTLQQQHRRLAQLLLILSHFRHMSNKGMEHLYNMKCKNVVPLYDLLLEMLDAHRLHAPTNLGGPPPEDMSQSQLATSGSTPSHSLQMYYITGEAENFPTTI
Procedure: done at 4° C. […] The protein
three experiments. In each experiment, triplicate samples were tested.
^2 IC50 : Concentration required to decrease the amount of bound
^3 RBA: Relative binding affinity is the IC50 ratio between

estrogen receptor [6] = biological target: T2, estrogen receptor (Rattus norvegicus, UniProt P06211); test: Animal studies (imaging agents); type: in vivo
T2 construct: from tissue
T2 sequence (P06211 1-600): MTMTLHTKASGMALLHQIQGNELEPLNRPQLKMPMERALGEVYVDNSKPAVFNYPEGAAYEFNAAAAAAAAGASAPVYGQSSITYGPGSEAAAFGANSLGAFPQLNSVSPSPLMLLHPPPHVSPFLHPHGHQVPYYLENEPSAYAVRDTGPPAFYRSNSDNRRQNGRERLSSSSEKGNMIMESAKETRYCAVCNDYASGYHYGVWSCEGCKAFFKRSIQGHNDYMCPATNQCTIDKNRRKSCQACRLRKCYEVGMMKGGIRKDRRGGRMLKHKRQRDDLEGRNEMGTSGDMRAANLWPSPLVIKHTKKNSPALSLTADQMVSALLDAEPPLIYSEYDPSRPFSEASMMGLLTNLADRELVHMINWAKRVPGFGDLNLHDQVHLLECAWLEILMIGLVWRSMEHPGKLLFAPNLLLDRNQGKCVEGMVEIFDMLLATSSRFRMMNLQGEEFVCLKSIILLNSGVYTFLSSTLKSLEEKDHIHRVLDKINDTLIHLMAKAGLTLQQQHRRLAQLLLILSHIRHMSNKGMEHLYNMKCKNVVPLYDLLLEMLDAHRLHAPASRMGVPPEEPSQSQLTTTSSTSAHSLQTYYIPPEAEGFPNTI

progesterone receptor = settings: in vivo; cited from earlier work

## CC/C(=C(\c1ccc(O)cc1)c1ccc(OCCN(C)C)cc1)c1ccccc1 [4-hydroxytamoxifen]
[1]
  anti-estrogen activity in vitro: potent anti-estrogen in vitro
[2]
  activity in vivo versus tamoxifen: less effective than tamoxifen in vivo
[3]
  ability to cross the cell membrane: polarity reduces its ability to cross the cell membrane
  glucuronidation and excretion: rapid glucuronidation of the hydroxyl group, followed by excretion

## CC/C(=C(\c1ccc(I)cc1)c1ccc(OCCN(C)C)cc1)c1ccccc1 [Compound 4-iodo]
[4]
  potency in detecting estrogen receptor-positive breast cancer: greater potency than tamoxifen

## CCN(CC)CCOc1ccc(/C(=C(/CCCBr)c2ccccc2)c2ccccc2)cc1 [Compound XI]
Estrogen receptor [5]; listed as Bromomethyl tamoxifen
  estrogen receptor binding, result in words: binds to estrogen receptors with greater affinity than the other halogenated tamoxifen analogs tested
Estrogen receptor [5]; listed as bromomethyl-Tx analogs
  estrogen receptor binding, result in words: bind to estrogen receptors greater than other halogenated tamoxifens tested with F, Cl, or I
Estrogen receptor [6]
  results in animal studies: produced the most superior results in animal studies

## CC[C@@H]1C[C@H]2[C@@H]3CCC4=CC(=O)CC[C@@H]4[C@H]3CC[C@]2(C)[C@H]1C(=O)C[18F] [FENP, 21-[^18 F]fluoro-16-α-ethyl-19-norprogesterone]
Progesterone receptor
  uterine target tissue uptake: high specific uterine target tissue uptake
